# Test results from US10758534B2 (Vertex Pharmaceuticals Incorporated, priority 2014, dated 2020).
# Where two headings read alike, the source gives them in different places.
# Target: T1, F508del (Homo sapiens, UniProt P13569, DEL508-508)
# T1 construct: expressed in transfected cells
# Assay: Protocol 2: FRET membrane potential optical assay (VIPR), identification of correction compounds
# Format: cell-based
# Excerpt: Membrane potential optical methods for assaying F508del modulation properties of compounds.
# These voltage sensitive assays are based on the change in fluorescence resonant energy transfer (FRET) between the membrane-soluble, voltage-sensitive dye, DiSBAC2(3), and a fluorescent phospholipid, CC2-DMPE, which is attached to the outer leaflet of the plasma membrane and acts as a FRET donor. Changes in membrane potential (Vm) cause the negatively charged DiSBAC2(3) to redistribute across the plasma membrane and the amount of energy transfer from CC2-DMPE changes accordingly. The changes in fluorescence emission were monitored using VIPR™ II, which is an integrated liquid handler and fluorescent detector designed to conduct cell-based screens in 96- or 384-well microtiter plates.
# To identify small molecules that correct the trafficking defect associated with F508del; a single-addition HTS assay format was developed. The cells were incubated in serum-free medium for 16 hrs at 37° C. in the presence or absence (negative control) of test compound. As a positive control, cells plated in 384-well plates were incubated for 16 hrs at 27° C. to “temperature-correct” F508del. The cells were subsequently rinsed 3× with Krebs Ringers solution and loaded with the voltage-sensitive dyes. To activate F508del, 10 μM forskolin and the CFTR potentiator, genistein (20 μM), were added along with Cl^−-free medium to each well. The addition of Cl^−-free medium promoted Cl^− efflux in response to F508del activation and the resulting membrane depolarization was optically monitored using the FRET-based voltage-sensor dyes.
# • Bath Solution #1: (in mM) NaCl 160, KCl 4.5, CaCl2 2, MgCl2 1, HEPES 10, pH 7.4 with NaOH. • Chloride-free bath solution: Chloride salts in Bath Solution #1 (above) are substituted with gluconate salts. • CC2-DMPE: Prepared as a 10 mM stock solution in DMSO and stored at −20° C. • DiSBAC2(3): Prepared as a 10 mM stock in DMSO and stored at −20° C. Cell Culture
# NIH3T3 mouse fibroblasts stably expressing F508del are used for optical measurements of membrane potential. The cells are maintained at 37° C. in 5% CO2 and 90% humidity in Dulbecco's modified Eagle's medium supplemented with 2 mM glutamine, 10% fetal bovine serum, 1×NEAA, β-ME, 1× pen/strep, and 25 mM HEPES in 175 cm^2 culture flasks. For all optical assays, the cells were seeded at 30,000/well in 384-well matrigel-coated plates and cultured for 2 hrs at 37° C. before culturing at 27° C. for 24 hrs for the potentiator assay. For the correction assays, the cells are cultured at 27° C. or 37° C. with and without compounds for 16-24 hours.
# [1] = Table 3, compounds of Table 1 as modulators of CFTR activity, protocol not stated
# [2] = F508del CFTR modulator activity, compounds of Table 1, read-out: EC30
# [3] = F508del CFTR modulator activity, compounds of Table 1
# T1 sequence (P13569 with tags, fused parts or gaps DEL508-508): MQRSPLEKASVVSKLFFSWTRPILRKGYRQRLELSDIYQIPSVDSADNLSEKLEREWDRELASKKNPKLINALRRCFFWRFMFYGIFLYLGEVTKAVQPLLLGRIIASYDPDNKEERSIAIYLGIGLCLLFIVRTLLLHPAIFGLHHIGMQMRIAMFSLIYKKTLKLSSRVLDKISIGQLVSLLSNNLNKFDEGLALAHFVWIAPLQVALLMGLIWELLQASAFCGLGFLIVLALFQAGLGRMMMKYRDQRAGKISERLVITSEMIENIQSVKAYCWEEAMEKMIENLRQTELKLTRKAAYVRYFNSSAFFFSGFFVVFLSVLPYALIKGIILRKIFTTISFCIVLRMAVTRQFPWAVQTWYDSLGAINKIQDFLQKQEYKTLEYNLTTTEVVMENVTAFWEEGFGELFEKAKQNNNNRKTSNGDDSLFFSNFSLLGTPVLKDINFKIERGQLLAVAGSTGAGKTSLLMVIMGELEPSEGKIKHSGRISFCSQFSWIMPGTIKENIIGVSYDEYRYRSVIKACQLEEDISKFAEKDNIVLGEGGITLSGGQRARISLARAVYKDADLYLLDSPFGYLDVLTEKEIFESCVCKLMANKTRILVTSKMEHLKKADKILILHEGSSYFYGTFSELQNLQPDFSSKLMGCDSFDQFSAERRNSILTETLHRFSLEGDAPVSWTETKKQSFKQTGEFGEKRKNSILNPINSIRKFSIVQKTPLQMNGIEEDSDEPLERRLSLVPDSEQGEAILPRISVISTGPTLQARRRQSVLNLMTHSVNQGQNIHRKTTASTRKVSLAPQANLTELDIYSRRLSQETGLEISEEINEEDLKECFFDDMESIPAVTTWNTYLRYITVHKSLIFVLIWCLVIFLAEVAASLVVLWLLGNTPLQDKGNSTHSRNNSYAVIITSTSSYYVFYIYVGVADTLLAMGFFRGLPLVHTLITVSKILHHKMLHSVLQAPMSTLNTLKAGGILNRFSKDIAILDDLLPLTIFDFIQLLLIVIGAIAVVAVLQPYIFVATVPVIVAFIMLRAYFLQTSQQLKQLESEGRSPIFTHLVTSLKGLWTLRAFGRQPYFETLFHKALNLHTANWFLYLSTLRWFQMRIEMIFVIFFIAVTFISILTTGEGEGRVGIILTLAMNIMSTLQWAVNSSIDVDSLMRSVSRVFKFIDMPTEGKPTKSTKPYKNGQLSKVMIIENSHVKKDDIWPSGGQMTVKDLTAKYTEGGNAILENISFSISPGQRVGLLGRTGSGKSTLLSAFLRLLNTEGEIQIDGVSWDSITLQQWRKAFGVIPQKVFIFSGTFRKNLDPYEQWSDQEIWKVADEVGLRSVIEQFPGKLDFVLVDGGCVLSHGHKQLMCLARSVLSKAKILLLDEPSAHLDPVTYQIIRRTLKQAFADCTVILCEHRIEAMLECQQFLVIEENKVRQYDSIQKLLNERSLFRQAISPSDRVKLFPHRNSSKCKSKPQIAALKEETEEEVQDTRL
Compound,EC30 [2] [nM],also measured
"Cc1cc(C)c(Cn2nc(C(C)(C)C)cc2C(=O)C(C)S(=O)(=O)c2ccccc2)c(C)c1 (racemic) [Compound 139, 2-(benzenesulfonyl)-1-[5-tert-butyl-2-[(2,4,6-trimethylphenyl)methyl]pyrazol-3-yl]propan-1-one]",,EC30 [1]: +++ (“+++” means <3 uM)
"Cc1cc(C)c(Oc2nc(C(C)(C)C)ccc2C(=O)NS(=N)(=O)c2cccc(N)c2)c(C)c1 (single isomer, unassigned) [Compound 19, N-[(3-aminophenyl)sulfonimidoyl]-6-tert-butyl-2-(2,4,6-trimethylphenoxy)pyridine-3-carboxamide]",,EC30 [1]: +++ (“+++” means <3 uM)
"Cc1cc(C)c(Oc2nc(C(C)(C)C)ccc2C(=O)N[S@](=N)(=O)c2cccc(N)c2)c(C)c1 (single isomer, unassigned) [Compound 53, N-[(3-aminophenyl)sulfonimidoyl]-6-tert-butyl-2-(2,4,6-trimethylphenoxy)pyridine-3-carboxamide]",,EC30 [1]: +++ (“+++” means <3 uM)
"CC(C)(C)c1ccc(C(=O)NS(=O)(=O)c2cccc(N)n2)c(N2CCC(C3CC3)C2(C)C)n1 (single isomer, unassigned) [Compound 2022, N-[(6-amino-2-pyridyl)sulfonyl]-6-tert-butyl-2-(3-cyclopropyl-2,2-dimethyl-pyrrolidin-1-yl)pyridine-3-carboxamide]",< 3000,
"CC(C)COc1cc(F)cc(-c2ccc(C(=O)NS(=O)(=O)c3cccc(N)n3)c(C3=CC(C)CC3(C)C)n2)c1 (single isomer, unassigned) [Compound 2039, N-[(6-amino-2-pyridyl)sulfonyl]-6-(3-fluoro-5-isobutoxy-phenyl)-2-(3,5,5-trimethylcyclopenten-1-yl)pyridine-3-carboxamide]",< 3000,
"CCC1(C)C[C@@H](C)CN1c1nc(-c2cc(F)cc(OCC(C)C)c2)ccc1C(=O)NS(=O)(=O)c1cccc(N)n1 (single isomer, unassigned) [Compound 2058, N-[(6-amino-2-pyridyl)sulfonyl]-2-(2-ethyl-2,4-dimethyl-pyrrolidin-1-yl)-6-(3-fluoro-5-isobutoxy-phenyl)pyridine-3-carboxamide]",< 3000,
"CC(C)COc1cc(F)cc(-c2ccc(C(=O)NS(=O)(=O)c3cccc(N)n3)c(N3CCC(C)C(C)C3)n2)c1 (single isomer, unassigned) [Compound 2062, N-[(6-amino-2-pyridyl)sulfonyl]-2-(3,4-dimethyl-1-piperidyl)-6-(3-fluoro-5-isobutoxy-phenyl)pyridine-3-carboxamide]",< 3000,
"C[C@@H]1CN(c2nc(C(C)(C)C)c([C@@H](O)[C@H](O)C3CCCC3)cc2C(=O)NS(=O)(=O)c2cccc(N)n2)C(C)(C)C1 (single isomer, unassigned) [Compound 2069]",< 3000,
"C[C@@H]1CN(c2nc(C3CCC(C(F)(F)F)CC3)ccc2C(=O)NS(=O)(=O)c2cccnc2N)C(C)(C)C1 (single isomer, unassigned) [Compound 2077]",< 3000,
"CC(C)COc1cc(F)cc(-c2ccc(C(=O)NS(=O)(=O)c3cccc(N)n3)c(C3=CC(C)CC3(C)C)n2)c1 (single isomer, unassigned) [Compound 2081, N-[(6-amino-2-pyridyl)sulfonyl]-6-(3-fluoro-5-isobutoxy-phenyl)-2-(3,5,5-trimethylcyclopenten-1-yl)pyridine-3-carboxamide]",,EC30 [3]: +++ (“+++” means <3 uM)
"CC(C)COc1cc(F)cc(-c2ccc(C(=O)NS(=O)(=O)c3cccc(N)n3)c(N3CCC(C)C(C)C3)n2)c1 (single isomer, unassigned) [Compound 2178, N-[(6-amino-2-pyridyl)sulfonyl]-2-(3,4-dimethyl-1-piperidyl)-6-(3-fluoro-5-isobutoxy-phenyl)pyridine-3-carboxamide]",,EC30 [3]: +++ (“+++” means <3 uM)
"CC(C)COc1ccn(-c2ccc(C(=O)NS(=O)(=O)c3cccnc3N)c(N3CC(C)CC34CCC4)n2)n1 (single isomer, unassigned) [Compound 2194, N-[(2-amino-3-pyridyl)sulfonyl]-6-(3-isobutoxypyrazol-1-yl)-2-(6-methyl-8-azaspiro[3.4]octan-8-yl)pyridine-3-carboxamide]",< 3000,
"CCC1(C)CC(C)CN1c1nc(-c2cc(F)cc(OCC(C)C)c2)ccc1C(=O)NS(=O)(=O)c1cccc(N)n1 (single isomer, unassigned) [Compound 2213, N-[(6-amino-2-pyridyl)sulfonyl]-2-(2-ethyl-2,4-dimethyl-pyrrolidin-1-yl)-6-(3-fluoro-5-isobutoxy-phenyl)pyridine-3-carboxamide]",< 3000,
"CC(C)(C)c1ccc(C(=O)NS(=O)(=O)c2cccc(N)n2)c(N2CCC(C3CCOCC3)C2(C)C)n1 (single isomer, unassigned) [Compound 2266, N-[(6-amino-2-pyridyl)sulfonyl]-6-tert-butyl-2-(2,2-dimethyl-3-tetrahydropyran-4-yl-pyrrolidin-1-yl)pyridine-3-carboxamide]",< 3000,
"CC(C)COc1cc(F)cc(-c2ccc(C(=O)NS(=O)(=O)c3cccc(N)n3)c(N3CC(C)CC34CCC4)n2)c1 (single isomer, unassigned) [Compound 2269, N-[(6-amino-2-pyridyl)sulfonyl]-6-(3-fluoro-5-isobutoxy-phenyl)-2-(6-methyl-8-azaspiro[3.4]octa N-8-yl)pyridine-3-carboxamide]",< 3000,
"CC(C)COc1cc(F)cc(-c2ccc(C(=O)NS(=O)(=O)c3cccc(N)n3)c(N3C[C@H](C(F)(F)F)CC3(C)C)n2)c1 (single isomer, unassigned) [Compound 2271, N-[(6-amino-2-pyridyl)sulfonyl]-2-(2,2-dimethyl-4-(trifluoromethyl)pyrrolidin-1-yl)-6-(3-fluoro-5-isobutoxy-phenyl)pyridine-3-carboxamide]",< 3000,
"CC(C)COc1cc(F)cc(-c2ccc(C(=O)NS(=O)(=O)N3CC[C@@H](N)C3)c(N3CCCC3(C)Cc3ccccc3)n2)c1 (single isomer, unassigned) [Compound 2325]",< 3000,
"CC1CN(c2nc(-n3ccc(OCC(C)(C)C)n3)ccc2C(=O)NS(=O)(=O)c2cccnc2N)C2(CCC2)C1 (single isomer, unassigned) [Compound 2358, N-[(2-amino-3-pyridyl)sulfonyl]-6-[3-(2,2-dimethylpropoxy)pyrazol-1-yl]-2-[6-methyl-8-azaspiro[3.4]octan-8-yl]pyridine-3-carboxamide]",< 3000,
"CC(C)COc1cc(F)cc(-c2ccc(C(=O)NS(=O)(=O)c3cccc(N)n3)c(C3CC(C)(C)CC3(C)C)n2)c1 (single isomer, unassigned) [Compound 2374, N-[(6-amino-2-pyridyl)sulfonyl]-6-(3-fluoro-5-isobutoxy-phenyl)-2-(2,2,4,4-tetramethylcyclopentyl)pyridine-3-carboxamide]",< 3000,
"CC(C)COc1cc(F)cc(-c2ccc(C(=O)NS(=O)(=O)c3cccc(N)n3)c(N3CC(C)CCC3C)n2)c1 (single isomer, unassigned) [Compound 2451, N-[(6-amino-2-pyridyl)sulfonyl]-2-(2,5-dimethyl-1-piperidyl)-6-(3-fluoro-5-isobutoxy-phenyl)pyridine-3-carboxamide]",< 3000,
"CC(C)COc1cc(F)cc(-c2ccc(C(=O)NS(=O)(=O)N3CCC(N)C3)c(N3CCCC3c3ccccc3)n2)c1 (single isomer, unassigned) [Compound 2477]",< 3000,
"CC(C)COc1cc(F)cc(-c2ccc(C(=O)NS(=O)(=O)c3cccc(N)n3)c(C3CC(C)(C)CC3(C)C)n2)c1 (single isomer, unassigned) [Compound 2492, N-[(6-amino-2-pyridyl)sulfonyl]-6-(3-fluoro-5-isobutoxy-phenyl)-2-(2,2,4,4-tetramethylcyclopentyl)pyridine-3-carboxamide]",,EC30 [3]: +++ (“+++” means <3 uM)
"CC(C)COc1cc(F)cc(-c2ccc(C(=O)NS(=O)(=O)c3cccc(N)n3)c(N3CCC(C)C(C)C3)n2)c1 (single isomer, unassigned) [Compound 2532, N-[(6-amino-2-pyridyl)sulfonyl]-2-(3,4-dimethyl-1-piperidyl)-6-(3-fluoro-5-isobutoxy-phenyl)pyridine-3-carboxamide]",,EC30 [3]: +++ (“+++” means <3 uM)
